Assay results published in patent US8987265B2, “Substituted 1,3,5-triazine derivatives of fused bicyclic oxalamide compounds for treatment of Hepatitis C” (priority 2012, dated 2015).

These compounds were tested on HCV pseudoparticles, genotype 1a (H77C) E1 and E2 envelope (assay: HCV pseudoparticle infection assay (luciferase, Huh7 cells)). Conditions: Hepatitis C virus, Huh-7, 48 h, read-out: EC50 (nM) 1a (H77C).
Type: cell-based

Compound | EC50 [nM]
O=C(C(=O)N1CC2CN(C(=O)c3ccc(Nc4nc(NC5(c6ccc(Cl)cc6)CC5)nc(OCC(F)(F)F)n4)cc3)CC2C1)N1CCc2ccccc2C1 (centres unmarked) [Compound 1014] | 0.01 to 10
NC(=O)C(=O)N1CC2CN(C(=O)c3ccc(Nc4nc(NC5(c6ccc(Cl)cc6)CC5)nc(OCC(F)(F)F)n4)cc3)CC2C1 (centres unmarked) [Compound 1003] | 0.01 to 10
O=C(C(=O)N1CC2CN(C(=O)c3ccc(Nc4nc(NC5(c6ccc(Cl)cc6)CC5)nc(OCC(F)(F)F)n4)cc3)CC2C1)N1CCCCC1 (centres unmarked) [Compound 1013] | 0.01 to 10
Cc1nnc(NC(=O)C(=O)N2CC3CN(C(=O)c4ccc(Nc5nc(NC6(c7ccc(Cl)cc7)CC6)nc(OCC(F)(F)F)n5)cc4)CC3C2)s1 (centres unmarked) [Compound 1016] | 0.01 to 10
O=C(Nc1nncs1)C(=O)N1CC2CN(C(=O)c3ccc(Nc4nc(NC5(c6ccc(Cl)cc6)CC5)nc(OCC(F)(F)F)n4)cc3)CC2C1 (centres unmarked) [Compound 1007] | 0.01 to 10
CNC(=O)C(=O)N1CC2CN(C(=O)c3ccc(Nc4nc(NC5(c6ccc(Cl)cc6)CC5)nc(OCC(F)(F)F)n4)cc3)CC2C1 (centres unmarked) [Compound 1017] | 10 to 1000
O=C(C(=O)N1CC2CN(C(=O)c3ccc(Nc4nc(NC5(c6ccc(Cl)cc6)CC5)nc(OCC(F)(F)F)n4)cc3)CC2C1)N1CCOCC1 (centres unmarked) [Compound 1004] | 0.01 to 10
O=C(NCc1ccc(F)cc1)C(=O)N1CC2CN(C(=O)c3ccc(Nc4nc(NC5(c6ccc(Cl)cc6)CC5)nc(OCC(F)(F)F)n4)cc3)CC2C1 (centres unmarked) [Compound 1002] | 0.01 to 10
O=C(Nc1ccc(F)cc1F)C(=O)N1CC2CN(C(=O)c3ccc(Nc4nc(NC5(c6ccc(Cl)cc6)CC5)nc(OCC(F)(F)F)n4)cc3)CC2C1 (centres unmarked) [Compound 1018] | 0.01 to 10
CN(C)C(=O)C(=O)N1CC2CN(C(=O)c3ccc(Nc4nc(NC5(c6ccc(Cl)cc6)CC5)nc(OCC(F)(F)F)n4)cc3)CC2C1 (centres unmarked) [Compound 1005] | 0.01 to 10
CC(C)CNC(=O)C(=O)N1CC2CN(C(=O)c3ccc(Nc4nc(NC5(c6ccc(Cl)cc6)CC5)nc(OCC(F)(F)F)n4)cc3)CC2C1 (centres unmarked) [Compound 1012] | 0.01 to 10
O=C(NC1CCCCC1)C(=O)N1CC2CN(C(=O)c3ccc(Nc4nc(NC5(c6ccc(Cl)cc6)CC5)nc(OCC(F)(F)F)n4)cc3)CC2C1 (centres unmarked) [Compound 1015] | 0.01 to 10
O=C(Nc1cccc(F)c1)C(=O)N1CC2CN(C(=O)c3ccc(Nc4nc(NC5(c6ccc(Cl)cc6)CC5)nc(OCC(F)(F)F)n4)cc3)CC2C1 (centres unmarked) [Compound 1006] | 0.01 to 10
O=C(Nc1nccs1)C(=O)N1CC2CN(C(=O)c3ccc(Nc4nc(NC5(c6ccc(Cl)cc6)CC5)nc(OCC(F)(F)F)n4)cc3)CC2C1 (centres unmarked) [Compound 1020] | 0.01 to 10
O=C(Nc1ccccc1)C(=O)N1CC2CN(C(=O)c3ccc(Nc4nc(NC5(c6ccc(Cl)cc6)CC5)nc(OCC(F)(F)F)n4)cc3)CC2C1 (centres unmarked) [Compound 1011] | 0.01 to 10
CCc1nnc(NC(=O)C(=O)N2CC3CN(C(=O)c4ccc(Nc5nc(NC6(c7ccc(Cl)cc7)CC6)nc(OCC(F)(F)F)n5)cc4)CC3C2)s1 (centres unmarked) [Compound 1019] | 0.01 to 10
Cc1ccc(NC(=O)C(=O)N2CC3CN(C(=O)c4ccc(Nc5nc(NC6(c7ccc(Cl)cc7)CC6)nc(OCC(F)(F)F)n5)cc4)CC3C2)cc1 (centres unmarked) [Compound 1001] | 0.01 to 10
O=C(Nc1cc(F)cc(F)c1)C(=O)N1CC2CN(C(=O)c3ccc(Nc4nc(NC5(c6ccc(Cl)cc6)CC5)nc(OCC(F)(F)F)n4)cc3)CC2C1 (centres unmarked) [Compound 1010] | 0.01 to 10
O=C(Nc1ccc(F)cc1)C(=O)N1CC2CN(C(=O)c3ccc(Nc4nc(NC5(c6ccc(Cl)cc6)CC5)nc(OCC(F)(F)F)n4)cc3)CC2C1 (centres unmarked) [Compound 1008] | 0.01 to 10
Cc1cc(NC(=O)C(=O)N2CC3CN(C(=O)c4ccc(Nc5nc(NC6(c7ccc(Cl)cc7)CC6)nc(OCC(F)(F)F)n5)cc4)CC3C2)no1 (centres unmarked) [Compound 1009] | 0.01 to 10

Same assay, conditions: Hepatitis C virus, Huh-7, 48 h, read-out: EC50 (nM) 1a H77C)

Compound | EC50 [nM]
CNC(=O)C(=O)N1CC2CN(C(=O)c3ccc(Nc4nc(NC5(c6ccc(Cl)cc6)CC5)nc(OCC(F)(F)F)n4)cc3)CC2C1 (centres unmarked) [Compound 1017] | 11.1
CN(C)C(=O)C(=O)N1CC2CN(C(=O)c3ccc(Nc4nc(NC5(c6ccc(Cl)cc6)CC5)nc(OCC(F)(F)F)n4)cc3)CC2C1 (centres unmarked) [Compound 1005] | 2.68
Cc1ccc(NC(=O)C(=O)N2CC3CN(C(=O)c4ccc(Nc5nc(NC6(c7ccc(Cl)cc7)CC6)nc(OCC(F)(F)F)n5)cc4)CC3C2)cc1 (centres unmarked) [Compound 1001] | 0.12
